From patent US10927107B2, “Phenyl [a]indole[2,3-g]quinolizine compounds, preparation method therefor, pharmaceutical composition, and applications thereof” (Shanghai Institute of Materia Medica, Chinese Academy of …, priority 2016, dated 2021)

Test system: HepG2 cells
Test: In vitro lipid-lowering activity: DiI-LDL uptake in HepG2 cells
Type: cell-based
Conditions: Homo sapiens, test compound 5 uM, 24 h, DiI-LDL 20 ug/ml, 3 h, FLU of sample group/FLU of blank group x100%, read-out: LDL uptake rate
Description: HepG2 cells were inoculated in 24-well plates, cultured in DMEM containing 10% FBS for 24 h or 48 h, and then transferred to DMEM containing 2% defatted serum and cultivated for 24 h. The old culture solution was discarded and replaced with new 2% defatted serum DMEM, and a test compound (the working concentration of which is 5 uM, triplicate for each sample) was added and incubated for 24 h. The old culture solution was abandoned and DMEM containing DiI-LDL (20 ug/ml) was added (300 ul/per 24 wells), incubated for 3 h. DMEM containing DiI-LDL was discarded, and cells were rinsed twice with PBS containing 0.4% BSA, and 3 times with PBS to remove excess DiI-LDL. Isopropanol was added (500 ul/per well of a 24-well plate), and was kept in darkness. After shaken for 20 minutes, 200 ul of supernatant was sucked to a black fluorescent plate, and fluorescence intensity (FLU) was detected at excitation light 520 nm and emission light 578 nm. The experimental results were calculated: LDL uptake rate=(FLU value of sample group to be tested/FLU value of blank group)×100%.

| SMILES | activity at 5 µM [%] |
| --- | --- |
| COc1ccc2c(c1)c1c(n2CO)CN2CCc3cc(OC)c(OCc4ccccc4)cc3[C@H]2C1 [(R)-A1] | 185 |
| COc1ccc2c(c1)c1c(n2CO)CN2CCc3cc(OCc4ccccc4)c(OC)cc3[C@H]2C1 [(R)-A55] | 200 |
| COc1ccc2[nH]c3c(c2c1)C[C@@H]1c2cc(OCc4ccc(C(F)(F)F)cc4)c(OC)cc2CCN1C3 [(R)-C3] | 218 |
| COc1ccc2[nH]c3c(c2c1)C[C@@H]1c2cc(OC)c(OCc4ccc(C(F)(F)F)cc4)cc2CCN1C3 [(R)-C47, (R)-2,12-Dimethoxy-3-((4-(trifluoromethyl)benzyl)oxy)-5,6,8,9,14,14a-hexahydroindolo[3′,2′:4,5]pyrido[2,1-a]isoquinoline] | 292 |
| COc1ccc2c(c1)c1c(n2CO)CN2CCc3cc(OC)c(OCc4ccccc4)cc3[C@@H]2C1 [(S)-A1] | 116 |
| COc1ccc2c(c1)c1c(n2CO)CN2CCc3cc(OCc4ccccc4)c(OC)cc3[C@@H]2C1 [(S)-A55] | 120 |
| COc1ccc2[nH]c3c(c2c1)C[C@H]1c2cc(OCc4ccc(C(F)(F)F)cc4)c(OC)cc2CCN1C3 [(S)-C3] | 111 |
| COc1ccc2[nH]c3c(c2c1)C[C@H]1c2cc(OC)c(OCc4ccc(C(F)(F)F)cc4)cc2CCN1C3 [(S)-C47, (S)-2,12-Dimethoxy-3-((4-(trifluoromethyl)benzyl)oxo)-5,6,8,9,14,14a-hexahydroindolo[3′,2′:4,5]pyrido[2,1-a]isoquinoline] | 273 |
| COc1ccc2c(c1)c1c(n2CO)CN2CCc3cc(OC)c(OCc4ccccc4F)cc3C2C1 (stereo not shown) [Example A9, (2-((2-fluorobenzyl)oxy)-3,12-dimethoxy-5,6,14,14a-tetrahydroindolo[3′,2′:4,5]pyridine[2,1-a]isoquinoline-9(8H)-yl)methanol] | 113 |
| COc1cc2c(cc1OCc1ccccc1F)C1Cc3c(n(CO)c4ccccc34)CN1CC2 (stereo not shown) [Example A10, (2-((2-fluorobenzyl)oxy)-3-methoxy-5,6,14,14a-tetrahydroindolo[3′,2′:4,5]pyridine[2,1-a]isoquinoline-9(8H)-yl)methanol] | 108 |
| COc1cccc(COc2cc3c(cc2OC)CCN2Cc4c(c5cc(OC)ccc5n4CO)CC32)c1 (stereo not shown) [Example A13, (3,12-Dimethoxy-2-((3-methoxybenzyl)oxo)-5,6,14,14a-tetrahydroindolo[3′,2′:4,5]pyridine[2,1-a]isoquinoline-9(8H)-yl)methanol] | 107 |
| COc1ccc2c(c1)c1c(n2CO)CN2CCc3cc(OC)c(OCc4ccc(C)cc4)cc3C2C1 (stereo not shown) [Example A15, (3,12-Dimethoxy-2-((4-methylbenzyl)oxy)-5,6,14,14a-tetrahydroindolo[3′,2′:4,5]pyridine[2,1-a]isoquinoline-9(8H)-yl)methanol] | 115 |
| COc1ccc2c(c1)c1c(n2CO)CN2CCc3cc(OC)c(OC)cc3C2C1 (stereo not shown) [Example A37, (2,3,12-Trimethoxy-5,6,14,14a-tetrahydroindolo[3′,2′:4,5]pyridine[2,1-a]isoquinoline-9(8H)-yl)methanol] | 99.1 |
| COc1cc2c(cc1OC)C1Cc3c(n(CO)c4ccccc34)CN1CC2 (stereo not shown) [Example A38, (2,3-dimethoxy-5,6,14,14a-tetrahydroindolo[3′,2′:4,5]pyridine[2,1-a]isoquinoline-9(8H)-yl)methanol] | 123 |
| COc1ccc2c(c1)c1c(n2CO)CN2CCc3cc(OC)c(OCC(F)(F)F)cc3C2C1 (stereo not shown) [Example A39, (3,12-Dimethoxy-2-(2,2,2-trifluoroethoxy)-5,6,14,14a-tetrahydroindolo[3′,2′:4,5]pyridine[2,1-a]isoquinoline-9(8H)-yl)methanol] | 147 |
| COc1ccc2c(c1)c1c(n2CO)CN2CCc3cc(OCc4ccc(C(F)(F)F)cc4)c(OC)cc3C2C1 (stereo not shown) [Example A57, (2,12-Dimethoxy-3-((4-(trifluoromethyl)benzyl)oxy)-5,6,14,14a-tetrahydroindolo[3′,2′:4,5]pyridine[2,1-a]isoquinoline-9(8H)-yl)methanol] | 112 |
| COc1cc2c(cc1OCc1ccc(F)cc1)CCN1Cc3c(c4ccccc4n3CO)CC21 (stereo not shown) [Example A60] | 108 |

| SMILES | activity at 5 µM [%] |
| --- | --- |
| COc1cc2c(cc1OCc1ccc(C)cc1)CCN1Cc3c(c4ccccc4n3CO)CC21 (stereo not shown) [Example A70, (2-methoxy-3-((4-methylbenzyl)oxy)-5,6,14,14a-tetrahydroindolo[3′,2′:4,5]pyridine[2,1-a]isoquinoline-9(8H)-yl)methanol] | 80.6 |
| OCn1c2c(c3ccccc31)CC1c3cc4c(cc3CCN1C2)OCO4 (stereo not shown) [Example A109, (5,6,14,14a-tetrahydro-[1,3]dioxazo[4,5-g]indolo[3′,2′:4,5]pyridine[2,1-a]isoquinoline-9(8H)-yl)methanol] | 100 |
| COc1ccc2c(c1)c1c(n2CO)CN2CCc3cc(OCc4cccc(C)c4)c(OC)cc3C2C1 (stereo not shown) [Example A142, (2,12-Dimethoxy-3-((3-methylbenzyl)oxo)-5,6,14,14a-tetrahydroindolo[3′,2′:4,5]pyridine[2,1-a]isoquinoline-9(8H)-yl)methanol] | 108 |
| COc1cc2c(cc1OCc1cccc(C)c1)CCN1Cc3c(c4ccccc4n3CO)CC21 (stereo not shown) [Example A143, (2-methoxy-3-((3-methylbenzyl)oxo)-5,6,14,14a-tetrahydroindolo[3′,2′:4,5]pyridine[2,1-a]isoquinoline-9(8H)-yl)methanol] | 91.1 |
| COc1cc2c(cc1OCc1ccc(F)cc1)C1Cc3c([nH]c4ccccc34)C(c3ccc(F)cc3)N1CC2 (stereo not shown) [Example B6, 2-((4-fluorobenzyl)oxo)-8-(4-fluorophenyl)-3-methoxy-5,6,8,9,14,14a-hexahydroindole[3′,2′: 4,5]pyridine[2,1-a]isoquinoline] | 108 |
| COc1ccc2[nH]c3c(c2c1)CC1c2cc(OCc4ccccc4F)c(OC)cc2CCN1C3c1ccc(F)cc1 (stereo not shown) [Example B9, 2-((2-fluorobenzyl)oxo)-8-(4-fluorophenyl)-3,12-dimethoxy-5,6,8,9,14,14a-hexahydroindole[3′,2′:4,5]pyridine[2,1-a]isoquinoline] | 94.3 |
| COc1cc2c(cc1OCc1ccccc1F)C1Cc3c([nH]c4ccccc34)C(c3ccc(F)cc3)N1CC2 (stereo not shown) [Example B10, 2-((2-fluorobenzyl)oxo)-8-(4-fluorophenyl)-3-methoxy-5,6,8,9,14,14a-hexahydroindole[3′,2′: 4,5]pyridine[2,1-a]isoquinoline] | 108 |
| COc1cccc(COc2cc3c(cc2OC)CCN2C3Cc3c([nH]c4ccc(OC)cc34)C2c2ccc(F)cc2)c1 (stereo not shown) [Example B13, 8-(4-Fluorophenyl)-3,12-dimethoxy-2-((3-methoxybenzyl)oxo)-5,6,8,9,14,14a-hexahydroindolo[3′,2′:4,5]pyridine[2,1-a]isoquinoline] | 105 |
| COc1ccc2[nH]c3c(c2c1)CC1c2cc(OCc4ccc(C)cc4)c(OC)cc2CCN1C3c1ccc(F)cc1 (stereo not shown) [Example B15, 8-(4-Fluorophenyl)-3,12-dimethoxy-2-((4-methylbenzyl)oxo)-5,6,8,9,14,14a-hexahydroindolo[3′,2′:4,5]pyridine[2,1-a]isoquinoline] | 111 |
| COc1cc2c(cc1OCc1ccc(C)cc1)C1Cc3c([nH]c4ccccc34)C(c3ccc(F)cc3)N1CC2 (stereo not shown) [Example B16, 8-(4-Fluorophenyl)-3-methoxy-2-((4-methylbenzyl)oxo)-5,6,8,9,14,14a-hexahydroindolo[3′,2′:4,5]pyridine[2,1-a]isoquinoline] | 107 |
| COc1ccc2[nH]c3c(c2c1)CC1c2cc(OC)c(OCc4ccc(F)cc4)cc2CCN1C3c1ccc(F)cc1 (stereo not shown) [Example B59, 3-((4-fluorobenzyl)oxo)-8-(4-fluorophenyl)-2,12-dimethoxy-5,6,8,9,14,14a-hexahydroindole[3′,2′:4,5]pyridine[2,1-a]isoquinoline] | 109 |
| COc1cc2c(cc1OCc1ccc(F)cc1)CCN1C2Cc2c([nH]c3ccccc23)C1c1ccc(F)cc1 (stereo not shown) [Example B60, 3-((4-fluorobenzyl)oxo)-8-(4-fluorophenyl)-2-methoxy-5,6,8,9,14,14a-hexahydroindole[3′,2′: 4,5]pyridine[2,1-a]isoquinoline] | 114 |
| COc1ccc2[nH]c3c(c2c1)CC1c2cc(OC)c(OCc4cccc(F)c4)cc2CCN1C3c1ccc(F)cc1 (stereo not shown) [Example B61, 3-((3-fluorobenzyl)oxo)-8-(4-fluorophenyl)-2,12-dimethoxy-5,6,8,9,14,14a-hexahydroindole[3′,2′:4,5]pyridine[2,1-a]isoquinoline] | 116 |
| COc1ccc2[nH]c3c(c2c1)CC1c2cc(OC)c(OCc4cccc(F)c4)cc2CCN1C3 (stereo not shown) [Example C51, 3-((3-Fluorobenzyl)oxo)-2,12-dimethoxy-5,6,8,9,14,14a-hexahydroindole[3′,2′:4,5]pyridine[2,1-a]isoquinoline] | 192 |
| COc1cc2c(cc1OCc1ccccc1F)CCN1Cc3[nH]c4ccccc4c3CC21 (stereo not shown) [Example C54, 3-((2-fluorobenzyl)oxo)-2-methoxy-5,6,8,9,14,14a-hexahydroindole[3′,2′:4,5]pyridine[2,1-a]isoquinoline] | 110 |
| COc1cc2c(cc1OCc1ccc(C)cc1)CCN1Cc3[nH]c4ccccc4c3CC21 (stereo not shown) [Example C60] | 84.3 |
| COc1ccc2[nH]c3c(c2c1)CC1c2cc(OC)c(OCc4cccc(C)c4)cc2CCN1C3 (stereo not shown) [Example C106, 2,12-dimethoxy-3-((3-methylbenzyl)oxo)-5,6,8,9,14,14a-hexahydroindolo[3′,2′:4,5]pyridine[2,1-a]isoquinoline] | 111 |
